Laboratory results from publication PMC9271048, “Probing strigolactone perception mechanisms with rationally designed small-molecule agonists stimulating germination of root parasitic weeds” (Nature Communications, 2022).
Where two headings read alike, the source gives them in different places.

Legend:
[1] = test system: ShHTLs (10 HTL proteins in S. hermonthica); assay: YLG-based competition assay on HTL proteins of S. hermonthica; format: biochemical, Striga hermonthica; conditions: Supplementary Fig. 27
In short: (§1)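 Competition with fluorogenic substrate YLG ([…]) for hydrolysis by each HTL or KAI2 protein; fluorescence (Ex 480/Em 520 nm) recorded every 1 min for 30 min. Linear 8-min increase, background hydrolysis subtracted, used; IC50 from fitted relative inhibition versus concentration.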

ShHTL7 [2] = target: T1, ShHTL7 (Striga hermonthica, UniProt A0A0M3PNA2); assay: ShHTL7-hydrolysis reaction analysis (HPLC); format: biochemical; conditions: 10 μM compound, 30 °C, 30 min; Supplementary Figs. 11, 20a, 24a
T1 sequence (A0A0M3PNA2 entry or part of it): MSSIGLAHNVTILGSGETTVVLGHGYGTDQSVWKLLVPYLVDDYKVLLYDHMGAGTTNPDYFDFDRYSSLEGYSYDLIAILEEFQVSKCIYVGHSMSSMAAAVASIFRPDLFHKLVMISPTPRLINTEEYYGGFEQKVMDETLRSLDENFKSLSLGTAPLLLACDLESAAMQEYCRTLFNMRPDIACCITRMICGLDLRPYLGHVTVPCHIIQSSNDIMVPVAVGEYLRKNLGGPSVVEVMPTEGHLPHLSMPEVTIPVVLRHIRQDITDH
In short: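 Compounds at 10 μM were incubated with 10 μg recombinant ShHTL7 or its mutants in PBS (pH 7.3) at 30 °C for 30 min, then quenched with methanol. The remaining compound was quantified by HPLC, and hydrolysis was expressed relative to a protein-free buffer control (n = 3).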

ShHTL7 [3] = target: T1, ShHTL7; assay: Competitive inhibition of ShHTL7 with Yoshimulactone Green (YLG) as substrate; format: biochemical
In short: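 YLG hydrolysis by ShHTL7 followed by fluorescence (ex 480/em 520 nm) every 1 min for 30 min; compounds and YLG from fresh DMSO stocks. After subtracting no-enzyme background, the linear 8-min increase was used; IC50 fitted from relative inhibition versus compound concentration.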

[4] = test system: PaKAI2s (5 KAI2 protein homologs in P. aegyptiaca); assay: YLG-based competition assay on KAI2 protein homologs of P. aegyptiaca; format: biochemical, Phelipanche aegyptiaca; conditions: Supplementary Fig. 27
In short: as §1

[5] = ShHTL2, YLG competition, read-out: IC50, replicate 1
[6] = ShHTL2, YLG competition, read-out: IC50, replicate 2
[7] = ShHTL2, YLG competition, read-out: IC50, replicate 3
[8] = ShHTL2, average of 3 replicates, read-out: IC50, average
[9] = ShHTL3, YLG competition, read-out: IC50, replicate 1
[10] = ShHTL3, YLG competition, read-out: IC50, replicate 2
[11] = ShHTL3, YLG competition, read-out: IC50, replicate 3
[12] = ShHTL3, average of 3 replicates, read-out: IC50, average
[13] = ShHTL4, YLG competition, read-out: IC50, replicate 1
[14] = ShHTL4, YLG competition, read-out: IC50, replicate 2
[15] = ShHTL4, YLG competition, read-out: IC50, replicate 3
[16] = ShHTL4, average of 3 replicates, read-out: IC50, average
[17] = ShHTL5, YLG competition, read-out: IC50, replicate 1
[18] = ShHTL5, YLG competition, read-out: IC50, replicate 2
[19] = ShHTL5, YLG competition, read-out: IC50, replicate 3
[20] = ShHTL5, average of 3 replicates, read-out: IC50, average
[21] = ShHTL6, YLG competition, read-out: IC50, replicate 1
[22] = ShHTL6, YLG competition, read-out: IC50, replicate 2
[23] = ShHTL6, YLG competition, read-out: IC50, replicate 3
[24] = ShHTL6, average of 3 replicates, read-out: IC50, average
[25] = ShHTL8, YLG competition, read-out: IC50, replicate 1
[26] = ShHTL8, YLG competition, read-out: IC50, replicate 2
[27] = ShHTL8, YLG competition, read-out: IC50, replicate 3
[28] = ShHTL8, average of 3 replicates, read-out: IC50, average
[29] = ShHTL9, YLG competition, read-out: IC50, replicate 1
[30] = ShHTL9, YLG competition, read-out: IC50, replicate 2
[31] = ShHTL9, YLG competition, read-out: IC50, replicate 3
[32] = ShHTL9, average of 3 replicates, read-out: IC50, average
[33] = ShHTL10, YLG competition, read-out: IC50, replicate 1
[34] = ShHTL10, YLG competition, read-out: IC50, replicate 2
[35] = ShHTL10, YLG competition, read-out: IC50, replicate 3
[36] = ShHTL10, average of 3 replicates, read-out: IC50, average
[37] = ShHTL11, YLG competition, read-out: IC50, replicate 1
[38] = ShHTL11, YLG competition, read-out: IC50, replicate 2
[39] = ShHTL11, YLG competition, read-out: IC50, replicate 3
[40] = ShHTL11, average of 3 replicates, read-out: IC50, average
[41] = ShHTL7, YLG competition, Supplementary Fig. 27, read-out: IC50, replicate 1
[42] = ShHTL7, YLG competition, Supplementary Fig. 27, read-out: IC50, replicate 2
[43] = ShHTL7, YLG competition, Supplementary Fig. 27, read-out: IC50, replicate 3
[44] = wild-type ShHTL7, average of 3, source data of Fig. 2a,b, Supplementary Figs. 8a, 9a, 20b, read-out: IC50, competitive ShHTL7 inhibition (YLG), source data average
[45] = KAI2C, YLG competition, read-out: IC50, replicate 1
[46] = KAI2C, YLG competition, read-out: IC50, replicate 2
[47] = KAI2C, YLG competition, read-out: IC50, replicate 3
[48] = KAI2C, average of 3 replicates, read-out: IC50, average
[49] = KAI2d1, YLG competition, read-out: IC50, replicate 1
[50] = KAI2d1, YLG competition, read-out: IC50, replicate 2
[51] = KAI2d1, YLG competition, read-out: IC50, replicate 3
[52] = KAI2d1, average of 3 replicates, read-out: IC50, average
[53] = KAI2d2, YLG competition, read-out: IC50, replicate 1
[54] = KAI2d2, YLG competition, read-out: IC50, replicate 2
[55] = KAI2d2, YLG competition, read-out: IC50, replicate 3
[56] = KAI2d2, average of 3 replicates, read-out: IC50, average
[57] = KAI2d3, YLG competition, read-out: IC50, replicate 1
[58] = KAI2d3, YLG competition, read-out: IC50, replicate 2
[59] = KAI2d3, YLG competition, read-out: IC50, replicate 3
[60] = KAI2d3, average of 3 replicates, read-out: IC50, average
[61] = KAI2d4, YLG competition, read-out: IC50, replicate 1
[62] = KAI2d4, YLG competition, read-out: IC50, replicate 2
[63] = KAI2d4, YLG competition, read-out: IC50, replicate 3
[64] = KAI2d4, average of 3 replicates, read-out: IC50, average

CC1=CC(OC(=O)N2CCN(C(=O)COc3ccc(Br)cc3C)CC2)N(C)C1=O (centres unmarked) [4h]
IC50 [1, 5]: 72.3 µM
IC50 [1, 6]: 78.3 µM
IC50 [1, 7]: 79.2 µM
IC50 [1, 8]: 76.6 µM
IC50 [1, 9]: > 100 µM
IC50 [1, 10]: > 100 µM
IC50 [1, 11]: > 100 µM
IC50 [1, 12]: > 100 µM
IC50 [1, 13]: 12.7 µM
IC50 [1, 14]: 14.6 µM
IC50 [1, 15]: 8.97 µM
IC50 [1, 16]: 12.1 µM
IC50 [1, 17]: 32.9 µM
IC50 [1, 18]: 39.4 µM
IC50 [1, 19]: 42.1 µM
IC50 [1, 20]: 38.1 µM
IC50 [1, 21]: > 100 µM
IC50 [1, 22]: > 100 µM
IC50 [1, 23]: > 100 µM
IC50 [1, 24]: > 100 µM
IC50 [1, 25]: 65.9 µM
IC50 [1, 26]: 81.2 µM
IC50 [1, 27]: 80.4 µM
IC50 [1, 28]: 75.8 µM
IC50 [1, 29]: > 100 µM
IC50 [1, 30]: > 100 µM
IC50 [1, 31]: > 100 µM
IC50 [1, 32]: > 100 µM
IC50 [1, 33]: 47.3 µM
IC50 [1, 34]: 41.8 µM
IC50 [1, 35]: 41.6 µM
IC50 [1, 36]: 43.6 µM
IC50 [1, 37]: > 100 µM
IC50 [1, 38]: > 100 µM
IC50 [1, 39]: > 100 µM
IC50 [1, 40]: > 100 µM
relative percentage of hydrolysis by ShHTL7, source data average (ShHTL7 [2]): 12.2513%
IC50 (ShHTL7 [3]; [41]): 4.33 µM
IC50 (ShHTL7 [3]; [42]): 5.43 µM
IC50 (ShHTL7 [3]; [43]): 4.75 µM
IC50 (ShHTL7 [3]; [44]): 4.84 µM
IC50 [4, 45]: 23.3 µM
IC50 [4, 46]: 36.9 µM
IC50 [4, 47]: 38.5 µM
IC50 [4, 48]: 32.9 µM
IC50 [4, 49]: 24.7 µM
IC50 [4, 50]: 22.1 µM
IC50 [4, 51]: 27.9 µM
IC50 [4, 52]: 24.9 µM
IC50 [4, 53]: 71.4 µM
IC50 [4, 54]: 67.3 µM
IC50 [4, 55]: 71.7 µM
IC50 [4, 56]: 70.1 µM
IC50 [4, 57]: 30.6 µM
IC50 [4, 58]: 41.8 µM
IC50 [4, 59]: 41.3 µM
IC50 [4, 60]: 37.9 µM
IC50 [4, 61]: > 100 µM
IC50 [4, 62]: > 100 µM
IC50 [4, 63]: > 100 µM
IC50 [4, 64]: > 100 µM

CC1=CC(OC(=O)N2CCN(C(=O)COc3ccc(Br)cc3C)CC2)CC1=O (centres unmarked) [4g]
IC50 [1, 5]: 65.2 µM
IC50 [1, 6]: 66 µM
IC50 [1, 7]: 64.5 µM
IC50 [1, 8]: 65.2 µM
IC50 [1, 9]: 40.5 µM
IC50 [1, 10]: 33.3 µM
IC50 [1, 11]: 28.5 µM
IC50 [1, 12]: 34.1 µM
IC50 [1, 13]: 19.2 µM
IC50 [1, 14]: 17.8 µM
IC50 [1, 15]: 16.1 µM
IC50 [1, 16]: 17.7 µM
IC50 [1, 17]: 40.1 µM
IC50 [1, 18]: 35.7 µM
IC50 [1, 19]: 41.8 µM
IC50 [1, 20]: 39.2 µM
IC50 [1, 21]: 53 µM
IC50 [1, 22]: 37.4 µM
IC50 [1, 23]: 61.5 µM
IC50 [1, 24]: 50.6 µM
IC50 [1, 25]: 61 µM
IC50 [1, 26]: 62 µM
IC50 [1, 27]: 51.8 µM
IC50 [1, 28]: 58.3 µM
IC50 [1, 29]: 31.2 µM
IC50 [1, 30]: 38.7 µM
IC50 [1, 31]: 46.2 µM
IC50 [1, 32]: 38.7 µM
IC50 [1, 33]: 49.6 µM
IC50 [1, 34]: 54.6 µM
IC50 [1, 35]: 55.2 µM
IC50 [1, 36]: 53.1 µM
IC50 [1, 37]: 55.9 µM
IC50 [1, 38]: 54.7 µM
IC50 [1, 39]: 58.2 µM
IC50 [1, 40]: 56.3 µM
relative percentage of hydrolysis by ShHTL7, source data average (ShHTL7 [2]): 10.7551%
IC50 (ShHTL7 [3]; [41]): 3.08 µM
IC50 (ShHTL7 [3]; [42]): 1.61 µM
IC50 (ShHTL7 [3]; [43]): 1.97 µM
IC50 (ShHTL7 [3]; [44]): 2.22 µM
IC50 [4, 45]: 53.3 µM
IC50 [4, 46]: 49.1 µM
IC50 [4, 47]: 43 µM
IC50 [4, 48]: 48.5 µM
IC50 [4, 49]: 27.1 µM
IC50 [4, 50]: 24.4 µM
IC50 [4, 51]: 23.2 µM
IC50 [4, 52]: 24.9 µM
IC50 [4, 53]: 62.3 µM
IC50 [4, 54]: 72.7 µM
IC50 [4, 55]: 74.9 µM
IC50 [4, 56]: 70 µM
IC50 [4, 57]: 57.1 µM
IC50 [4, 58]: 36.6 µM
IC50 [4, 59]: 53.9 µM
IC50 [4, 60]: 49.2 µM
IC50 [4, 61]: 77.3 µM
IC50 [4, 62]: 85.3 µM
IC50 [4, 63]: 76.1 µM
IC50 [4, 64]: 79.6 µM
